Data taken from US20100047308A1, “Production methods of virus inactivated and cell-free body implant” (priority 2006, published 2010).

Tested on: L-929 cells (fibroblasts)
Assay: Cytotoxicity of graft exudates according to USP <87> (cell lysis, inhibition of cell growth)
Settings: 24 hours, USP <87> qualitative method
Procedure: The acellular dermal implants obtained after treatment with the solvent/detergent were powdered and mixed with 1 ml of distilled water for every 300 mg of the powder. To 4 g of the mixed sample was added 20 ml of physiological saline, followed by extraction at 37° C. for 72 hours. Tests were conducted within 24 hours after the completion of the extraction. The extract was mixed at a volume ratio of 1:2 with a culture medium (MEM). L-929 cells (fibroblasts), which are usually used in inhibition tests because of their high susceptibility to chemicals, were plated at a density of 10^5 cells per ml before culturing. […] This experiment was repeated three times while cytotoxicity was evaluated according to the qualitative method of USP <87>.
In order to examine whether the solvent/detergent solution remaining in the acellular dermal implants had toxic effects on cells of the patient, the exudates from the grafts were assayed for cytotoxicity.

## C[S+](C)[O-] [Positive Control, DMSO]
  Exudate Grades (cytotoxicity): 4
